# In paper PMC7044277 (Nature Communications, 2020):
# Values joined by “and” are separate entries in the source; they are usually repeats but may differ in a detail not shown here. Identical values can stand only once.
# What was measured:
# Assay type in all cases: cell-based
# [1] = molecular target: 320 non-olfactory GPCRs (Homo sapiens, UniProt P21462)
# [2] = molecular target: 320 non-olfactory GPCRs (Homo sapiens, UniProt P35462)
# [3] = molecular target: T1, 320 non-olfactory GPCRs (Homo sapiens, UniProt P29275)
# T1 construct: expressed in transfected cells; host or cells: HTLA cells
# [4] = molecular target: T2, 320 non-olfactory GPCRs (Homo sapiens, UniProt P51582); details: receptor P2RY4; replicate values, Fig_4g
# T2 construct: expressed in transfected cells; host or cells: HTLA cells
# 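Wherever Fold of Basal is given: compound tested at 1 µM final concentration.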
# 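Wherever GPCRome agonism screen response is given: fold over basal response of each receptor without drug.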
# Chain of 320 non-olfactory GPCRs (Homo sapiens, UniProt P21462) (P21462 whole entry): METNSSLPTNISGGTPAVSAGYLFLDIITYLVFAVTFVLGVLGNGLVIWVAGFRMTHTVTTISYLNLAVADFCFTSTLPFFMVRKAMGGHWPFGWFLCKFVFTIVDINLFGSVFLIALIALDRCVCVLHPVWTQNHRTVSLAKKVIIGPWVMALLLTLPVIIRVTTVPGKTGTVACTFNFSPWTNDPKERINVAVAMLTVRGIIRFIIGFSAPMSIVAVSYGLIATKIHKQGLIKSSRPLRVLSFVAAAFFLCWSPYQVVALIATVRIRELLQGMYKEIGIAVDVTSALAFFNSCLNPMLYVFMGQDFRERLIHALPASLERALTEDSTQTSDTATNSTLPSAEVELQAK
# T1 sequence (P29275 whole entry): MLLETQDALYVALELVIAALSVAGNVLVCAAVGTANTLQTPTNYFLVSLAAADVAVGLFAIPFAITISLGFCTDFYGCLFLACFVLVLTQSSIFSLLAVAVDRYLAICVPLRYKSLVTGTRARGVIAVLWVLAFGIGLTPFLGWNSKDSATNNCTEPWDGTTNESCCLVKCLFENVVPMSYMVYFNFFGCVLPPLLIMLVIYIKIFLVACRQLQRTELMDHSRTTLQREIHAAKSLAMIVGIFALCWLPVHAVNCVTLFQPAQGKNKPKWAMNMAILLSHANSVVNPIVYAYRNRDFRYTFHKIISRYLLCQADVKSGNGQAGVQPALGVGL
# T2 sequence (P51582 whole entry): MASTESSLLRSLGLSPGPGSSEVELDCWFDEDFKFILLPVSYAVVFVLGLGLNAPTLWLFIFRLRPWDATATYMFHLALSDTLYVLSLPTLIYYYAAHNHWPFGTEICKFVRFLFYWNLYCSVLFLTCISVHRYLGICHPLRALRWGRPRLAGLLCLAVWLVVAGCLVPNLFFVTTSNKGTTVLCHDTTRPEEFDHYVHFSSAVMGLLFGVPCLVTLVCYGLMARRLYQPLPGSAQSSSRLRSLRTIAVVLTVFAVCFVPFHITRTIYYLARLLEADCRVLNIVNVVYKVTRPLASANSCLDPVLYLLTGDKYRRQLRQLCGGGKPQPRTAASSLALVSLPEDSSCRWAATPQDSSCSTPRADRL
# Chain of 320 non-olfactory GPCRs (Homo sapiens, UniProt P35462) (P35462 whole entry): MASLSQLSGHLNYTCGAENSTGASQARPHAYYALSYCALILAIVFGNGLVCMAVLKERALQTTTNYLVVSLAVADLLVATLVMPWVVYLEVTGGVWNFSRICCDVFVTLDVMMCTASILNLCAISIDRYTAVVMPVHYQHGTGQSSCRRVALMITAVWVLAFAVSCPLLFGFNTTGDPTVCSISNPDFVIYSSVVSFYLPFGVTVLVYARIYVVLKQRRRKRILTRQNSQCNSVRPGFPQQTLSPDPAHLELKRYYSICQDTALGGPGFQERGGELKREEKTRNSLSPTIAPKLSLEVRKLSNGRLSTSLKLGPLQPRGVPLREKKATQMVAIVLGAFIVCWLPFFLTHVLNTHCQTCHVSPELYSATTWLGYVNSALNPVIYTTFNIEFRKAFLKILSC
compound,measurement,setting,value
CCOc1cccc2cc(C(C)NCC3(O)CCCCC3)oc12 (stereo not shown) [O4LE6],Fold of Basal,[1],0.6589 and 0.3791 and 0.4925 and 0.3481
same,Fold of Basal,[2],9.324 and 11.1304 and 9.776 and 11.3977
same,Fold of Basal,[3],1.3919 and 1.763 and 1.526 and 2.198
same,GPCRome agonism screen response,[4],0.9286 and 1.003 and 1.314 and 2.009
